The experiment concerns P388 leukemia ip, CD2F1 mice, survival T/C. Nature of the experiment: NCI In Vivo Anticancer Drug Screen. Data for tumor model P388 Leukemia (intraperitoneal) in CD2F1 (CDF1) mice. The settings on record: endpoint: median survival time, higher = longer survival. In a few lines: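 Mice carrying the transplanted tumor received test compound or vehicle. Survival was recorded in each group, and the value is the treated-group measurement divided by that of the vehicle-treated control group.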

[1] abbreviates: dose: 50.0 mg/kg/injection, schedule: Q01DX005 (ip), vehicle: Klucel (hydroxypropylcellulose) (HPC).
Where [2] appears, read: dose: 100.0 mg/kg/injection, schedule: Q01DX005 (ip), vehicle: Klucel (hydroxypropylcellulose) (HPC).
Setting [3] is: dose: 200.0 mg/kg/injection, schedule: Q01DX005 (ip), vehicle: Klucel (hydroxypropylcellulose) (HPC).
Setting [4] is: dose: 100.0 mg/kg/injection, schedule: Q04DX003 (ip), vehicle: saline with Tween-80.
[5] abbreviates: dose: 200.0 mg/kg/injection, schedule: Q04DX003 (ip), vehicle: saline with Tween-80.
The mark [6] stands for this setting: dose: 400.0 mg/kg/injection, schedule: Q04DX003 (ip), vehicle: saline with Tween-80.
Setting [7] is: dose: 60.0 mg/kg/injection, schedule: Q01DX005 (ip), vehicle: saline with Tween-80.
Where [8] appears, read: dose: 120.0 mg/kg/injection, schedule: Q01DX005 (ip), vehicle: saline with Tween-80.
Where [9] appears, read: dose: 50.0 mg/kg/injection, schedule: Q01DX009 (ip), vehicle: saline.
Where [10] appears, read: dose: 100.0 mg/kg/injection, schedule: Q01DX009 (ip), vehicle: saline.
Setting [11] is: dose: 50.0 mg/kg/injection, schedule: Q01DX005 (ip), vehicle: saline with Tween-80.
The mark [12] stands for this setting: dose: 100.0 mg/kg/injection, schedule: Q01DX005 (ip), vehicle: saline with Tween-80.
Setting [13] is: dose: 200.0 mg/kg/injection, schedule: Q01DX005 (ip), vehicle: saline with Tween-80.

Where “and” joins values, the source holds several entries; their conditions need not be identical. Equal values may be shown once. Toxic doses and inconclusive results are not listed.

Experimental findings from PubChem BioAssay AID330 (DTP/NCI, 2004) are described below.

For the compound `C[C@H]1C(=O)CCC2[C@]3(C)CCC4(CO)[C@@H]5CC(C)(C)C(=O)C[C@]5(C)CC[C@]4(C)C3CC[C@@]21C` (stereo partly drawn), the T/C (dose: 7.75 mg/kg/injection, schedule: Q01DX005 (ip), vehicle: Klucel (hydroxypropylcellulose) (HPC)) is 98 % of control; the T/C (dose: 15.5 mg/kg/injection, schedule: Q01DX005 (ip), vehicle: Klucel (hydroxypropylcellulose) (HPC)) is 91 % of control; the T/C (dose: 31.0 mg/kg/injection, schedule: Q01DX005 (ip), vehicle: Klucel (hydroxypropylcellulose) (HPC)) was 89 % of control.

`CNC1CC(C)(O)Cc2cc3c(c(O)c21)C(=O)c1c(O)cc2c(c1C3=O)OC1OC2(C)C(O)C(N(C)C)C1O` (stereo not drawn): the T/C (dose: 12.5 mg/kg/injection, schedule: Q01DX009 (ip), vehicle: other) is 153 % of control and the T/C (dose: 25.0 mg/kg/injection, schedule: Q01DX009 (ip), vehicle: other) was 158 % of control.

With `Cc1ccc(S(=O)(=O)NC(=O)c2cnc(N(C)C)s2)cc1`, the T/C was 104 % of control under setting [1], 101 % of control under setting [2] and 107 % of control under setting [3].

`O=C(O)/C=C(O)/C=C/c1ccccc1`: the T/C is, setting by setting: under setting [4], 92 % of control; under setting [5], 101 % of control; under setting [6], 101 % of control.

Turning to `C=C1CC2(CC3C(CC2C)C3(C)C)OC1=O` (stereo not drawn), the T/C (dose: 100.0 mg/kg/injection, schedule: Q01DX001 (ip), vehicle: saline) is 101 % of control; the T/C (dose: 200.0 mg/kg/injection, schedule: Q01DX001 (ip), vehicle: saline) is 101 % of control; the T/C (dose: 400.0 mg/kg/injection, schedule: Q01DX001 (ip), vehicle: saline) is 104 % of control.

Regarding `Cc1onc(-c2c(F)cccc2Cl)c1C(=O)OCc1c(F)cccc1Cl`, the T/C under setting [7] is 99 % of control; the T/C under setting [8] was 97 % of control; the T/C (dose: 240.0 mg/kg/injection, schedule: Q01DX005 (ip), vehicle: saline with Tween-80) is 97 % of control.

As for `O=[N+]([O-])c1cc2c(ccc3occc32)o1`, the T/C was 102 % of control under setting [1], 97 % of control under setting [2] and 98 % of control under setting [3].

For `O=C1NC(=O)C2(C(=O)c3cccc4cccc2c34)N1c1ccccc1` (stereo not drawn), the T/C (dose: 50.0 mg/kg/injection, schedule: Q01DX009 (ip), vehicle: distilled water + alcohol) was 94 % of control; the T/C (dose: 100.0 mg/kg/injection, schedule: Q01DX009 (ip), vehicle: distilled water + alcohol) is 102 % of control; the T/C (dose: 200.0 mg/kg/injection, schedule: Q01DX009 (ip), vehicle: distilled water + alcohol) is 100 % of control.

Turning to `ClCCN(Cc1ccccc1)Cc1ccccc1`, the T/C by setting is: (dose: 3.13 mg/kg/injection, schedule: Q01DX009 (ip), vehicle: saline with Tween-80) 104 % of control; (dose: 6.25 mg/kg/injection, schedule: Q01DX009 (ip), vehicle: saline with Tween-80) 119 % of control; (dose: 12.5 mg/kg/injection, schedule: Q01DX009 (ip), vehicle: saline with Tween-80) 123 % of control.

For the compound `CCOC(=O)N1C=CC(c2ccccc2)=CC2ON=C(c3c(C)cc(C)cc3C)N21` (stereo not drawn), the T/C was 106 % of control under setting [9]; 108 % of control under setting [10]; 99 % of control (dose: 200.0 mg/kg/injection, schedule: Q01DX009 (ip), vehicle: saline).

Consider `CC(Cl)(C=O)c1ccccc1` (stereo not drawn), for which the T/C under setting [7] was 100 % of control and the T/C under setting [8] was 97 % of control.

For the compound `O=C1Nc2ccccc2C(=O)C1=Ic1ccccc1`, the T/C (dose: 15.0 mg/kg/injection, schedule: Q01DX005 (ip), vehicle: Klucel (hydroxypropylcellulose) (HPC)) was 101 % of control; the T/C (dose: 30.0 mg/kg/injection, schedule: Q01DX005 (ip), vehicle: Klucel (hydroxypropylcellulose) (HPC)) is 104 % of control; the T/C under setting [1] was 94 % of control; the T/C (dose: 60.0 mg/kg/injection, schedule: Q01DX005 (ip), vehicle: Klucel (hydroxypropylcellulose) (HPC)) is 104 % of control and 88 % of control; the T/C under setting [2] was 91 % of control.

Turning to `Cc1cncn2ncnc12`, the T/C runs as follows: (dose: 100.0 mg/kg/injection, schedule: Q04DX003 (ip), vehicle: saline) 100 % of control; (dose: 200.0 mg/kg/injection, schedule: Q04DX003 (ip), vehicle: saline) 95 % of control; (dose: 400.0 mg/kg/injection, schedule: Q04DX003 (ip), vehicle: saline) 95 % of control.

For the compound `CCCSCC(C)C`, the T/C was 100 % of control (dose: 50.0 mg/kg/injection, schedule: Q01DX009 (ip), vehicle: saline with Tween-80); 100 % of control (dose: 100.0 mg/kg/injection, schedule: Q01DX009 (ip), vehicle: saline with Tween-80); 109 % of control (dose: 200.0 mg/kg/injection, schedule: Q01DX009 (ip), vehicle: saline with Tween-80).

In the case of `COc1ccc2nc(-n3[nH]c(C)c(-c4cc(C)[nH]n4)c3=O)cc(C)c2c1`, the T/C under setting [11] was 91 % of control, the T/C under setting [12] is 91 % of control and the T/C under setting [13] is 90 % of control.

With `N#CC1CCCC(C#N)N1` (stereo not drawn), the T/C reads like this: (dose: 6.25 mg/kg/injection, schedule: Q01DX005 (ip), vehicle: saline) 100 % of control; (dose: 12.5 mg/kg/injection, schedule: Q01DX005 (ip), vehicle: saline) 88 % of control; (dose: 25.0 mg/kg/injection, schedule: Q01DX005 (ip), vehicle: saline) 100 % of control.

As to `O=C(O)CCC(=O)N(CCP(c1ccccc1)c1ccccc1)CCP(c1ccccc1)c1ccccc1`, the T/C is 111 % of control (dose: 50.0 mg/kg/injection, schedule: Q01DX009 (ip), vehicle: Klucel (hydroxypropylcellulose) (HPC)) and 112 % of control (dose: 100.0 mg/kg/injection, schedule: Q01DX009 (ip), vehicle: Klucel (hydroxypropylcellulose) (HPC)).

For the compound `CC(C)(O)c1ccccc1[S+]1OC(C)(C)c2ccccc21` (stereo not drawn), the T/C is 109 % of control (dose: 100.0 mg/kg/injection, schedule: Q04DX002 (ip), vehicle: saline with Tween-80); 112 % of control (dose: 200.0 mg/kg/injection, schedule: Q04DX002 (ip), vehicle: saline with Tween-80); 109 % of control (dose: 400.0 mg/kg/injection, schedule: Q04DX002 (ip), vehicle: saline with Tween-80).

Take `CCOC(=O)C1=NNC(C#N)C1` (stereo not drawn): the T/C is 101 % of control under setting [11], 97 % of control under setting [12] and 99 % of control under setting [13].

With `CC(=O)Nc1cccc2c(C)cc(=O)[nH]c12`, the T/C is 91 % of control (dose: 100.0 mg/kg/injection, schedule: Q01DX001 (ip), vehicle: Klucel (hydroxypropylcellulose) (HPC)); 97 % of control (dose: 200.0 mg/kg/injection, schedule: Q01DX001 (ip), vehicle: Klucel (hydroxypropylcellulose) (HPC)); 98 % of control (dose: 400.0 mg/kg/injection, schedule: Q01DX001 (ip), vehicle: Klucel (hydroxypropylcellulose) (HPC)).

As to `Nc1nc(N)nc(N/C=C/C(=O)O)n1`, the T/C by setting is: (dose: 50.0 mg/kg/injection, schedule: Q01DX005 (ip), vehicle: water) 99 % of control; (dose: 100.0 mg/kg/injection, schedule: Q01DX005 (ip), vehicle: water) 105 % of control; (dose: 200.0 mg/kg/injection, schedule: Q01DX005 (ip), vehicle: water) 106 % of control.

With `CC1CC(N)=NC1C(=O)NCCC#N` (stereo not drawn), the T/C reads like this: (dose: 12.5 mg/kg/injection, schedule: Q01DX009 (ip), vehicle: saline) 97 % of control; (dose: 25.0 mg/kg/injection, schedule: Q01DX009 (ip), vehicle: saline) 101 % of control; under setting [9], 98 % of control; under setting [10], 90 % of control.

Consider `CC1=NN(C(C)(C)C)[Si]2(C(C)(C)C)C1[Si]1(C(C)(C)C)C2C(C)=NN1C(C)(C)C` (stereo not drawn), for which the T/C was 92 % of control (dose: 25.0 mg/kg/injection, schedule: Q01DX005 (ip), vehicle: Klucel (hydroxypropylcellulose) (HPC)); 86 % of control under setting [1]; 90 % of control under setting [2]; 90 % of control under setting [3].

Turning to `C(=C1c2ccccc2-c2ccccc21)c1ccccc1`, the T/C was 100 % of control under setting [4], 100 % of control under setting [5] and 100 % of control under setting [6].
